From ChEMBL document CHEMBL1777687, “Structure stability/activity relationships of sulfone stabilized N,N-dichloroamines” (Bioorg Med Chem Lett, 2011)
In brackets after ≈: the same amount, converted by molar mass.

Key:
Escherichia coli = assay: Bactericidal activity against Escherichia coli ATCC 25922 after 1 hr by CLSI M26-A method; format: functional; conditions: ATCC 25922, 1 h
Staphylococcus aureus = assay: Bactericidal activity against Staphylococcus aureus ATCC 29213 after 1 hr by CLSI M26-A method; format: functional; conditions: ATCC 29213, 1 h
Candida albicans = assay: Fungicidal activity against Candida albicans ATCC 10231 after 1 hr by CLSI M26-A method; format: functional; conditions: ATCC 10231, 1 h
[1] = Chemical stability of the compound assessed as half life in acetate buffer at pH 4; format: physicochemical
[2] = Chemical stability of the compound assessed as half life in phosphate buffer at pH 7; format: physicochemical
[3] = Chemical stability of the compound assessed as half life in 0.6% borate buffer at pH 7; format: physicochemical

Q: Which MBC (Escherichia coli) does the source give for `CC(C)(CC[N+](C)(C)C)N(Cl)Cl.[Cl-]` here?
A: 2 µg/mL

Q: And the MBC (Staphylococcus aureus)?
A: 2 µg/mL

Q: And the MFC (Candida albicans)?
A: 64 µg/mL

Q: And the half-life [1]?
A: > 281 days

Q: And the half-life [2]?
A: > 210 days

Q: What does the source list for `CC(C)(CCC[N+](C)(C)C)N(Cl)Cl.[Cl-]`?
A: MBC (Escherichia coli): 8 µg/mL; MBC (Staphylococcus aureus): 2 µg/mL; MFC (Candida albicans): 256 µg/mL; half-life [1]: 80 days; half-life [2]: 56 days

Q: For `CC(C)(CCS(=O)(=O)CCS(=O)(=O)O)N(Cl)Cl`, which MBC (Escherichia coli) is on record?
A: 8 µg/mL (≈ 24.4 µM)

Q: What about the MBC (Staphylococcus aureus) of the same molecule?
A: 2 µg/mL (≈ 6.09 µM)

Q: And the MFC (Candida albicans)?
A: 16 µg/mL (≈ 48.7 µM)

Q: And the half-life [1]?
A: > 342 days

Q: What about the half-life [2] of the same molecule?
A: > 342 days

Q: Which MBC (Escherichia coli) does the source give for `CC(C)(CCS(=O)(=O)CCCS(=O)(=O)O)N(Cl)Cl` here?
A: 2 µg/mL (≈ 5.84 µM)

Q: And the MBC (Staphylococcus aureus)?
A: 2 µg/mL (≈ 5.84 µM)

Q: And the MFC (Candida albicans)?
A: 1020 µg/mL (≈ 2990 µM)

Q: What about the half-life [1] of the same molecule?
A: > 112 days

Q: And the half-life [2]?
A: 85 days

Q: What does the source list for `CC(C)(CCS(=O)(=O)CCS(=O)(=O)CCS(=O)(=O)O)N(Cl)Cl`?
A: MBC (Escherichia coli): 2 µg/mL (≈ 4.76 µM); MBC (Staphylococcus aureus): 4 µg/mL (≈ 9.52 µM); MFC (Candida albicans): 32 µg/mL (≈ 76.1 µM); half-life [1]: > 73 days; half-life [3]: 14 days

Q: With `CC(C)(CCS(=O)(=O)CC[N+](C)(C)C)N(Cl)Cl.[Cl-]` as the molecule, how does the MBC (Escherichia coli) read?
A: 8 µg/mL

Q: What about the MBC (Staphylococcus aureus) of the same molecule?
A: 2 µg/mL

Q: What about the MFC (Candida albicans) of the same molecule?
A: 32 µg/mL

Q: And the half-life [1]?
A: 6 days

Q: For `CC(C)(CCS(=O)(=O)CCC[N+](C)(C)C)N(Cl)Cl.[Cl-]`, which MBC (Escherichia coli) is on record?
A: 8 µg/mL

Q: And the MBC (Staphylococcus aureus)?
A: 2 µg/mL

Q: And the MFC (Candida albicans)?
A: 32 µg/mL

Q: What about the half-life [1] of the same molecule?
A: > 160 days

Q: What about the half-life [3] of the same molecule?
A: 70 days

Q: For `CC(C)(CCS(=O)(=O)CCCCCCCCS(=O)(=O)O)N(Cl)Cl`, which MBC (Escherichia coli) is on record?
A: 2 µg/mL (≈ 4.85 µM)

Q: What about the MBC (Staphylococcus aureus) of the same molecule?
A: 4 µg/mL (≈ 9.7 µM)

Q: What about the MFC (Candida albicans) of the same molecule?
A: 8 µg/mL (≈ 19.4 µM)

Q: What about the half-life [1] of the same molecule?
A: 182 days

Q: What about the half-life [3] of the same molecule?
A: 70 days

Q: Which MBC (Escherichia coli) does the source give for `CC(C)(CCS(=O)(=O)CCCCCCCC[N+](C)(C)C)N(Cl)Cl.[Cl-]` here?
A: 8 µg/mL

Q: What about the MBC (Staphylococcus aureus) of the same molecule?
A: 8 µg/mL

Q: And the MFC (Candida albicans)?
A: 32 µg/mL

Q: And the half-life [1]?
A: 127 days

Q: What about the half-life [2] of the same molecule?
A: 74 days

Q: Which results are given for `CC(C)(CCCS(=O)(=O)CCS(=O)(=O)O)N(Cl)Cl`?
A: MBC (Escherichia coli): 8 µg/mL (≈ 23.4 µM); MBC (Staphylococcus aureus): 2 µg/mL (≈ 5.84 µM); MFC (Candida albicans): 128 µg/mL (≈ 374 µM); half-life [1]: 45 days; half-life [3]: 45 days

Q: For `CC(C)(CS(=O)(=O)[O-])N(Cl)Cl.[Na+]`, which MBC (Escherichia coli) is on record?
A: 2 µg/mL

Q: And the MBC (Staphylococcus aureus)?
A: 2 µg/mL

Q: What about the MFC (Candida albicans) of the same molecule?
A: 32 µg/mL

Q: And the half-life [1]?
A: > 730 days

Q: What about the half-life [2] of the same molecule?
A: > 300 days

Q: Which MBC (Escherichia coli) does the source give for `CC(C)(CS(=O)(=O)CCS(=O)(=O)O)N(Cl)Cl` here?
A: 4 µg/mL (≈ 12.7 µM)

Q: And the MBC (Staphylococcus aureus)?
A: 8 µg/mL (≈ 25.5 µM)

Q: What about the MFC (Candida albicans) of the same molecule?
A: 64 µg/mL (≈ 204 µM)

Q: And the half-life [1]?
A: > 93 days

Q: And the half-life [2]?
A: 1 days

Q: Which results are given for `CC(C)(C[N+](C)(C)C)N(Cl)Cl.[Cl-]`?
A: MBC (Escherichia coli): 16 µg/mL; MBC (Staphylococcus aureus): 8 µg/mL; MFC (Candida albicans): 128 µg/mL; half-life [1]: > 325 days; half-life [2]: > 396 days
